In patent US20070190143A1, “Disintegrating tablets comprising licarb azepine” (priority 2004, published 2007):
In brackets after ≈: the same amount, converted by molar mass.

Experiment: solubility in water
Type: physicochemical
Conditions: 25° C.
From the text: Licarbazepine is indicated to be suitable for the treatment of psychosomatic disturbances, epilepsy, trigeminal neuralgia and cerebral spasticity. […] The mechanisms by which the compounds of the invention exert their anticonvulsant effects are not completely understood, but their activity may be partly due to effects on ion flow across neuronal membranes. However, pharmacokinetics, absorption sites and mechanisms of action of the compounds of the invention are not understood in detail. Licarbazepine is slightly soluble in water (3.2 mg/ml at 25° C.). In view of this physical property, a parenteral formulation of licarbazepine can be prepared as described, e. g., in EP-1 033 988. Despite the merits of the known parenteral dosage form, there remains a need to establish an advantageous oral dosage form of the compounds of the invention. One of the problems that may occur using an oral dosage form is the fluctuation of blood levels of the compounds of the invention on repeated administration, which may be associated with side effects.

solubility: 3200 µg/mL (≈ 12.6 mM)
Structure (SMILES): NC(=O)N1c2ccccc2CC(O)c2ccccc21 (racemic) [Licarbazepine, 10,11-dihydro-10-hydroxy-5H-dibenz[b,f]azepine-5-carboxamide]
